Literature values in US12465608B2, “Osimertinib for use in the treatment of non-small cell lung cancer” (AstraZeneca AB, priority 2019, dated 2025).

Legend:
[1] = tested on: patients with advanced mutation-positive EGFR (Ex19del or L858R) NSCLC; settings: for median progression free survival (PFS): first-line therapy, FLAURA
[2] = tested on: patients with EGFR mutation-positive NSCLC
[3] = tested on: patients with advanced EGFR mutation-positive NSCLC who were never- or light-former smokers; settings: erlotinib combined with carboplatin plus paclitaxel; subgroup of patients with EGFR mutations

Row | Compound | median progression free survival (PFS) [1] | events of CNS progression, patients ([1]; irrespective of known or treated CNS metastases at trial entry) | PFS hazard ratio (HR) ([1]; osimertinib vs erlotinib or gefitinib, 95% CI 0.37, 0.57, p<0.0001) | median CNS PFS ([1]; patients with CNS metastases on a baseline brain scan) | reduction in the risk of CNS progression ([1]; patients with CNS metastases on a baseline brain scan, vs standard EGFR-TKIs) | CNS PFS HR ([1]; patients with CNS metastases on a baseline brain scan, vs standard EGFR-TKIs, 95% CI 0.26-0.86, p=0.014) | PFS hazard ratio (HR) ([2]; dacomitinib vs gefitinib, 95% CI 0.47-0.74, p<0.0001) | median PFS ([2]; first line treatment, EGFR mutation-positive NSCLC) | side effects, combination vs erlotinib monotherapy [3]
1 | C=CC(=O)Nc1cc(Nc2nccc(-c3cn(C)c4ccccc34)n2)c(OC)cc1N(C)CCN(C)C [osimertinib, N-(2-{2-dimethylaminoethyl-methylamino}-4-methoxy-5-{[4-(1-methylindol-3-yl)pyrimidin-2-yl]amino}phenyl) prop-2-enamide] | 18.9 months | 6% | 0.46 | not reached | 52% | 0.48 |  |  | 
2 | COc1cc2ncnc(Nc3ccc(F)c(Cl)c3)c2cc1NC(=O)/C=C/CN1CCCCC1 [dacomitinib, (2E)-N-{4-[(3-chloro-4-fluorophenyl)amino]-7-methoxyquinazolin-6-yl}-4-(piperidin-1-yl)but-2-enamide] |  |  |  |  |  |  | 0.59 | 14.7 months | 
3 | C#Cc1cccc(Nc2ncnc3cc(OCCOC)c(OCCOC)cc23)c1 [erlotinib] | 10.2 months |  |  |  |  |  |  |  | more side effects
